Test results reported in publication PMC10574351, “First-Row Transition Metal Complexes Incorporating the 2-(2′-pyridyl)quinoxaline Ligand (pqx), as Potent Inflammatory Mediators: Cytotoxic Properties and Biological Activities against the Platelet-Activating Factor (PAF) and Thrombin” (Molecules, 2023).

Target: T1, Lipoprotein-associated phospholipase A2 (Lp-PLA2) (Oryctolagus cuniculus, UniProt G1SE06)
T1 construct: from tissue; host or cells: rabbit plasma
T1 sequence (G1SE06 22-423): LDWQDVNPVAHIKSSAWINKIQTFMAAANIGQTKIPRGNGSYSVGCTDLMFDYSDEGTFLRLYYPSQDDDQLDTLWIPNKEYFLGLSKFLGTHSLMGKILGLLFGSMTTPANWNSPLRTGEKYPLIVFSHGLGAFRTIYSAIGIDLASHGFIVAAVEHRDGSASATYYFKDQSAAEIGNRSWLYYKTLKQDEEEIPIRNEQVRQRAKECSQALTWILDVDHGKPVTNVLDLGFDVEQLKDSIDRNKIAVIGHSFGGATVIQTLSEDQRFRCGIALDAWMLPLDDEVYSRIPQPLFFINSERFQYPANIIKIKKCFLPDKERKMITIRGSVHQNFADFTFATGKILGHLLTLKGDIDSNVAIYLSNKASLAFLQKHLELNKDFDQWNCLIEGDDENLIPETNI
Experiment: Plasma PAF-AH (LpPLA2) activity assay
Assay type: biochemical, rabbit
Settings: in increased concentrations, Figure 10
Experimental: The experiment on the inhibitory effect of each compound of interest against the washed rabbit platelets (WRPs) aggregation was carried out as per the already described method. The platelets were from male New Zealand white rabbits (about 20), individually housed in stainless steel cages in an air-conditioned room (19 ± 1 °C, 55 ± 5% humidity on a 12/12 h artificial light/dark cycle). Blood samples were drawn from the main ear artery. Microliters of PAF in a final concentration of about 10^–10 M were added to the cuvette of the aggregometer, and the height of the platelet aggregation was monitored. […] Dithiothreitol-insensitive PAF choline phosphotransferase, lyso-PAF:acetyl-CoA acetyltransferase and PAF-acetylhydrolase activity assays were performed on the homogenates of rabbit leukocytes while the activity of lipoprotein-associated phospholipase A2 was assessed on plasma as previously described. […] All results were expressed as mean ± standard deviation (SD). […] Data were analyzed using a statistical software package (SPSS for Windows, 16.0, 2007, SPSS Inc., Chicago, IL, USA) and Microsoft Excel 2007.
Plasma PAF-AH was determined in rabbit plasma by the trichloroacetic acid precipitation method using [3H] […] The [3H]-acetate released into the aqueous phase was measured on a liquid scintillation counter. […]

## [Ni(pqx)Cl2]2 [Complex 7]
  inhibition of the specific activity of Lp-PLA2: disables the enzymatic activity
